Patent US10744213B2, “Fluorescent compounds for imaging of blood vessels and blood flow, and an in vivo screen for pro- and anti-angiogenic agents” (COLOSSUS BIOPHARMA CONSULTANTS COMPANY, LIMITED, priority 2017, dated 2020)

Legend:
[1] = Acute toxicity on zebrafish over a five-day regimen; parameters: species or system zebrafish (Danio rerio); conditions: in vivo, other: added to the fish culture (immersion), calculated using the Benchmark Dose Software (BMDS)
[2] = test system: zebrafish blood vessels; experiment: Staining of zebrafish blood vessels; parameters: species or system zebrafish (Danio rerio); conditions: in vivo
Excerpt: (§1) Another embodiment of the invention comprises contacting live zebrafish, wild type or not, at various development stages, with the fluorescent compounds. To achieve the contact, the fluorescent compounds can in general be formulated as a solution, in DMSO for instance, and added to the fish culture. […] The fluorescent compounds enter the zebrafish vascular system as a result of such treatment, causing the blood vessels to fluoresce upon excitation and the fluorescence image of the blood vessels and the motion of blood flow can be observed with a microscope. The images can also be recorded with an image capturing device such as a camera. […] Further advantage of the current invention, which is in significant contrast to the transgenic zebrafish models, resides in the fact that the fluorescent compounds are exogenously administered and can be allowed to clear out of the test animals when so desired (see Figure I), such as when further procedures are required with the test animals and the fluorescence may interfere. […]

[3] = test system: cow blood serum; experiment: Native PAGE of blood serum stained with the fluorescent compound (UV, fluorescence); assay type: binding; conditions: 25 μM stain
[4] = test system: goldfish (Carassius auratus) blood serum; experiment: as above; assay type: binding; conditions: 25 μM stain
[5] = test system: zebrafish; assay type: in vivo, zebrafish (Danio rerio); conditions: after staining at 10 μM for 1 hour, continuous culture in RO water
Excerpt: as §1

## CCOC(=O)c1ccc(C2CC(c3cc4cc(OC)ccc4oc3=O)=NN2c2ccc(C(=O)OCC)cc2)cc1 (centres unmarked) [Diethyl 4,4′-(3-(6-methoxy-2-oxo-2H-chromen-3-yl)-4,5-dihydro-1H-pyrazole-1,5-diyl)dibenzoate]
[1]
  LC50 at 5 days: 272 µM
[2]
  Regular working concentration for staining zebrafish blood vessels: 10 to 25 µM

## CCOC(=O)c1cn(-c2ccccc2)nc1-c1ccccc1 [Ethyl 1,3-diphenyl-1H-pyrazole-4-carboxylate]
[3]
  Staining of serum bands on Native PAGE: UV as well as matching blue fluorescence
[4]
  Staining of serum bands on Native PAGE: UV as well as matching blue fluorescence

## CCOC(=O)c1ccc(N2N=C(c3cc4cc(OC)ccc4oc3=O)CC2c2ccccc2)cc1 (centres unmarked) [Ethyl 4-(3-(6-methoxy-2-oxo-2H-chromen-3-yl)-5-phenyl-4,5-dihydro-1H-pyrazol-1-yl)benzoate]
[5]
  Clearance of the dye (fading of green fluorescence): incremental fading of green fluorescence over time within the first 6 hours
